# In US8993779B2, “Positive allosteric modulators of MGLUR2” (Merck Sharp & Dohme Corp., priority 2010, dated 2015):
# Target: T1, recombinant human mGluR2 (Homo sapiens, UniProt Q14416)
# T1 construct: expressed in transfected cells
# Test: FLIPR Ca2+ mobilization assay, potentiation of mGluR2 receptor
# Format: cell-based
# Settings: CHO dhfr- cells expressing human mGluR2 and Gα16; potentiation after EC20 glutamate (900 nM); read-out: FLIPR EC50
# Description: Activity in potentiating the mGluR2 receptor may be determined as follows. The compounds of the present invention are tested in a fluorescence laser imaging plate reader (FLIPR) based assay. This assay is a common functional assay to monitor Ca^2+ mobilization in whole cells expressing recombinant receptor coupled with a promiscuous G-protein. CHO dhfr-cells stably expressing recombinant human mGluR2 and Gα16 loaded with Fluo-4 AM (Invitrogen, Carlsbad Calif.) are treated with dose responses of compounds and the Ca^2+ response is monitored on a FLIPR384 (Molecular Devices, Sunnydale Calif.) for agonist activity. The potentiation response is monitored after a subsequent addition of an EC20 concentration of glutamate (900 nM). The maximum calcium response at each concentration of compound for agonist or potentiation are plotted as dose responses and the curves are fitted with a four parameters logistic equation giving EC50 and Hill coefficient using the iterative non linear curve fitting software program.
# T1 sequence (Q14416 19-872): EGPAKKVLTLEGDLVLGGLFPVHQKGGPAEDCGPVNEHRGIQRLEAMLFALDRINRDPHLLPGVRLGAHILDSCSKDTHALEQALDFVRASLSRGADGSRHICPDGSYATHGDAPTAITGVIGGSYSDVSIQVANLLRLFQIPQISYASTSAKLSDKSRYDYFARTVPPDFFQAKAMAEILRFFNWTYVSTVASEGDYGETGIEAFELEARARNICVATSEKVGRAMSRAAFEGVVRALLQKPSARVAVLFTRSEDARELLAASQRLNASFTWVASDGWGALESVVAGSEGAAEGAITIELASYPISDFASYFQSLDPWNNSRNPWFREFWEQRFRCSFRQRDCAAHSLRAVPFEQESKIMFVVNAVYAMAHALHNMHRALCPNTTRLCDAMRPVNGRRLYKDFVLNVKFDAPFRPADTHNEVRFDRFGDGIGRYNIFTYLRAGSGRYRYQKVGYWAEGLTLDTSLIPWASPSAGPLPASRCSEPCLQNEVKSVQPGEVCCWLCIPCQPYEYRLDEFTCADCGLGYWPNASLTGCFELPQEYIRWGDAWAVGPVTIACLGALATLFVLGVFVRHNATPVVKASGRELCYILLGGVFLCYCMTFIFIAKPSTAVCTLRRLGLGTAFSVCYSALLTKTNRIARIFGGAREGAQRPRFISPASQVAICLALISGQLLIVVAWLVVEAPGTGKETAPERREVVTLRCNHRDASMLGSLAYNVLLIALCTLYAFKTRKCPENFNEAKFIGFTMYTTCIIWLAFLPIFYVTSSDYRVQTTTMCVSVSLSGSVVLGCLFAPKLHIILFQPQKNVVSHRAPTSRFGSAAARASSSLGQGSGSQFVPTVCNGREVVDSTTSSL
row,Structure (SMILES),EC50 [nM]
1,"N#CCn1c(=O)n(CC2CC2)c2ccc(-c3ccccc3)cc21 [Example 1-9, [3-(cyclopropylmethyl)-2-oxo-6-phenyl-2,3-dihydro-1H-benzimidazol-1-yl]acetonitrile]",264
2,"COc1ncc(-c2ccc3c(c2)n(C)c(=O)n3CC(C)(C)C)c(OC)n1 [Example 1-61, 5-(2,4-dimethoxypyrimidin-5-yl)-1-(2,2-dimethylpropyl)-3-methyl-1,3-dihydro-2H--benzimidazol-2-one]",2660
3,"Cc1ccc(-c2ccc3c(c2)n(C)c(=O)n3CC(C)(C)C)c(C#N)c1 [Example 1-94, 2-[1-(2,2-dimethylpropyl)-3-methyl-2-oxo-2,3-dihydro-1H-benzimidazol-5-yl]-5-methylbenzonitrile]",41
4,"Cn1c(=O)n(CC(C)(C)C)c2ccc(-c3ncccc3C(F)(F)F)cc21 [Example 1-148, 1-(2,2-dimethylpropyl)-3-methyl-5-[3-(trifluoromethyl)pyridin-2-yl]-1,3-dihydro-2H-benzimidazol-2-one]",126
5,"Cn1c(=O)n(CC(C)(C)C)c2ccc(-c3ccc4c(c3)CN(C(=O)OC(C)(C)C)CC4)cc21 [Example 1-187, tert-butyl 7-[1-(2,2-dimethylpropyl)-3-methyl-2-oxo-2,3-dihydro-1H-benzimidazol-5-yl]-3,4-dihydroisoquinoline-2(1H)-carboxylate]",182
6,"Cn1c(=O)n(CC(C)(C)C)c2ccc(-c3cccc(Oc4cc(C(F)(F)F)ccn4)c3)cc21 [Example 2-4, 1-(2,2-dimethylpropyl)-3-methyl-5-(3-{[4-(trifluoromethyl)pyridin-2-yl]oxy}phenyl)-1,3-dihydro-2H-benzimidazol-2-one]",496
7,"Cn1c(=O)n(CC(C)(C)C)c2ccc(-c3cc(C#N)cc(Oc4ccnc(C#N)c4)c3)cc21 [Example 2-38, 4-{3-cyano-5-[1-(2,2-dimethylpropyl)-3-methyl-2-oxo-2,3-dihydro-1H-benzimidazol-5-yl]phenoxy}pyridine-2-carbonitrile]",41
8,"Cn1c(=O)n(CC(C)(C)C)c2ccc(-c3cccc(OCc4ccccc4C(F)(F)F)c3)cc21 [Example 3-3, 1-(2,2-dimethylpropyl)-3-methyl-5-(3-{[2-(trifluoromethyl)benzyl]oxy}phenyl)-1,3-dihydro-2H-benzimidazol-2-one]",3650
9,"Cn1c(=O)n(CC(C)(C)C)c2ccc(-c3cccc(Oc4ccccc4)c3)cc21 [Example 4-8, 1-(2,2-dimethylpropyl)-3-methyl-5-(3-phenoxyphenyl)-1,3-dihydro-2H-benzimidazol-2-one]",1250

# Other lines, results leading:
row,EC50 [nM],Structure (SMILES)
1,3350,"CN1CCCC(Oc2cccc(-c3ccc4c(c3)n(C)c(=O)n4CC(C)(C)C)n2)C1 (stereo not shown) [Example 5-12, 1-(2,2-dimethylpropyl)-3-methyl-5-{6-[(1-methylpiperidin-3-yl)oxy]pyridin-2-yl}-1,3-dihydro-2H-benzimidazol-2-one]"
2,364,"Cn1c(=O)n(CC(C)(C)C)c2ccc(-c3cncc(Oc4ccc(C#N)nc4)n3)cc21 [Example 5-22, 5-({6-[1-(2,2-dimethylpropyl)-3-methyl-2-oxo-2,3-dihydro-1H-benzimidazol-5-yl]pyrazin-2-yl}oxy)pyridine-2-carbonitrile]"
3,45,"Cn1c(=O)n(-c2cccc(C(F)(F)F)c2)c2ccc(-c3ccccc3C#N)cc21 [Example 6-9, 2-{3-methyl-2-oxo-1-[3-(trifluoromethyl)phenyl]-2,3-dihydro-1H-benzimidazol-5-yl}benzonitrile]"
4,781,"CN1CCN(c2ccc(-c3ccc4c(c3F)n(C)c(=O)n4CC3(C)CC3)cn2)CC1 [Example 7-19, 4-fluoro-3-methyl-1-[(1-methylcyclopropyl)methyl]-5-[6-(4-methylpiperazin-1-yl)pyridin-3-yl]-1,3-dihydro-2H-benzimidazol-2-one]"
5,77,"Cn1c(=O)n(CC2CC2)c2ccc(-c3ccncc3C(F)(F)F)c(F)c21 [Example 7-47, 1-(cyclopropylmethyl)-4-fluoro-3-methyl-5-[3-(trifluoromethyl)pyridin-4-yl]-1,3-dihydro-2H-benzimidazol-2-one]"
6,40,"Cn1c(=O)n(CC(C)(C)C)c2ccc(-c3cc(Oc4cccc(C#N)n4)ccc3C#N)c(F)c21 [Example 8-5, 6-{4-cyano-3-[1-(2,2-dimethylpropyl)-4-fluoro-3-methyl-2-oxo-2,3-dihydro-1H-benzimidazol-5-yl]phenoxy}pyridine-2-carbonitrile]"
7,129,"Cn1c(=O)n(CC(C)(C)C)c2ccc(-c3cccc(C(O)c4ccccc4)c3)cc21 (stereo not shown) [Example 10-3, 1-(2,2-dimethylpropyl)-5-{3-[hydroxy(phenyl)methyl]phenyl}-3-methyl-1,3-dihydro-2H-benzimidazol-2-one]"
8,225,"Cn1c(=O)n(CC(C)(C)C)c2ccc(-c3cccc(C(C)(O)c4ccccc4)n3)cc21 (stereo not shown) [Example 10-5, 1-(2,2-dimethylpropyl)-5-[6-(1-hydroxy-1-phenylethyl)pyridin-2-yl]-3-methyl-1,3-dihydro-2H-benzimidazol-2-one]"

# Same assay, conditions: potentiation after EC20 glutamate (900 nM); read-out: EC50 potentiating the mGluR2 receptor in the FLIPR assay
row,EC50 [nM],Structure (SMILES)
1,12000,"Cc1ccccc1-c1ccc2c(c1)n(C)c(=O)n2C1CCN(c2ncccn2)CC1 [Example 1-201, 3-methyl-5-(2-methylphenyl)-1-(1-pyrimidin-2-ylpiperidin-4-yl)-1,3-dihydro-2H-benzimidazol-2-one]"
2,> 30000,"Cc1ccccc1-c1ccc2c(c1)n(C)c(=O)n2C1CCNCC1 [Example 1-202, 3-methyl-5-(2-methylphenyl)-1-piperidin-4-yl-1,3-dihydro-2H-benzimidazol-2-one]"
3,> 30000,"Cn1c(=O)n(C2CCNCC2)c2ccc(-c3ccccc3C(N)=O)cc21 [Example 1-203, 2-(3-methyl-2-oxo-1-piperidin-4-yl-2,3-dihydro-1H-benzimidazol-5-yl)benzamide]"
4,> 30000,"Cc1ccccc1-c1ccc2c(c1)n(C)c(=O)n2C1CCN(C(=O)OC(C)(C)C)CC1 [Example 1-205, tert-butyl 4-[3-methyl-5-(2-methylphenyl)-2-oxo-2,3-dihydro-1H-benzimidazol-1-yl]piperidine-1-carboxylate]"
5,20000,"Cn1c(=O)n(C2CCN(c3ncccn3)CC2)c2ccc(-c3ccccc3C(N)=O)cc21 [Example 1-206, 2-[3-methyl-2-oxo-1-(1-pyrimidin-2-ylpiperidin-4-yl)-2,3-dihydro-1H-benzimidazol-5-yl]benzamide]"
